Read-outs that look alike come from different tables or passages of the source. Numbered stars: 1 amine (or outer) side, 2 acyl side, 3 side chain; on linkers, the order of the positions; unused ones are H or OH. Bridge positions count the residues as written; N and C are the ends. Square brackets hold non-standard residues; d marks the D form. Peptide text beside a SMILES is read from it. * marks the point of attachment. C20 diacid = O=C(O)CCCCCCCCCCCCCCCCCCC(=O)*; γGlu = O=C(O)[C@H](CCC(=O)[*:2])N[*:1]; NMeI = CC[C@H](C)[C@H](NC)C(=O)O; Sar = CNCC(=O)O
What was measured:
[1] = Solubility assessment (turbidity absorbance at 325 nm); assay type: physicochemical; details: stock 2 mg/ml diluted 1:1, ambient temperature (typically 25°C), n=1; for Solubility, Acetate buffer pH 4: 100 mM acetate buffer pH 4.0; for Solubility, Acetate buffer pH 5: 100 mM acetate buffer pH 5.0; for Solubility, Histidine buffer pH 6: 100 mM histidine buffer pH 6.0; for Solubility, Histidine buffer pH 7: 100 mM histidine buffer pH 7.0; for Solubility, Phosphate buffer pH 6: 100 mM phosphate buffer pH 6.0; for Solubility, Phosphate buffer pH 7: 100 mM phosphate buffer pH 7.0; for Solubility, Phosphate buffer pH 7.5: 100 mM phosphate buffer pH7.5
Method in brief: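 Turbidimetric screen across pH 4.0–7.5 in 100 mM acetate, histidine and phosphate buffers. A 2 mg/ml peptide stock (pH 2.5) was diluted 1:1 into each, then A325 measured at ambient temperature; values ≤ 0.02 AU denoted solubility of 1 mg/ml or more.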

[2] = molecular target: T1, human calcitonin receptor (hCTR2) (Homo sapiens, UniProt P30988); assay: hCTR2 assay: induction of cAMP (AlphaScreen cAMP Assay kit) in COS7 cells expressing hCTR2; assay type: cell-based
T1 construct: expressed in transfected cells
T1 sequence (P30988 25-474): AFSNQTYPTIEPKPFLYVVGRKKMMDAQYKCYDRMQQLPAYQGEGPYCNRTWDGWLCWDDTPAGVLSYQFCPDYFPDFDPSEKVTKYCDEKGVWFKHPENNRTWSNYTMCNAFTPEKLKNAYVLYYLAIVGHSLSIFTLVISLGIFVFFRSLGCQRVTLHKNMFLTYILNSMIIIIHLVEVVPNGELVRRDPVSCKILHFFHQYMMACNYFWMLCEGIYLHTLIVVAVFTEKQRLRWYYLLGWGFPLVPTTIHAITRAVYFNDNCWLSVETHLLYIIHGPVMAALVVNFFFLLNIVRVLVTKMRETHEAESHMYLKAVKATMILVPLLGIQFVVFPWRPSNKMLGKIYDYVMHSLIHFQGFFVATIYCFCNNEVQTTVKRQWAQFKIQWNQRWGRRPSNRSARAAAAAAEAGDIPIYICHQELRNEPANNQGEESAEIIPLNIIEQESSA
Method in brief: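 cAMP induction was measured by AlphaScreen in COS7 cells stably expressing hCTR2 without RAMPs, after 15 min at 37° C with increasing peptide concentrations, 100 µM IBMX and 0.1% casein (Tyrode, pH 7.4). A 4-parameter logistic fit gave EC50 and % efficacy versus pramlintide.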

[3] = cAMP induction in COS7 cells expressing hCTR2, average of a minimum of 3 determinations, read-out: hCTR2 EC50

Structure (SMILES) | Solubility, Acetate buffer pH 4 [1] | Solubility, Acetate buffer pH 5 [1] | Solubility, Histidine buffer pH 6 [1] | Solubility, Histidine buffer pH 7 [1] | Solubility, Phosphate buffer pH 6 [1] | Solubility, Phosphate buffer pH 7 [1] | Solubility, Phosphate buffer pH 7.5 [1] | EC50 [2, 3] | EC50 [2]
CC[C@H](C)[C@@H](C(=O)N[C@@H](CC(C)C)C(=O)N[C@@H](CO)C(=O)N[C@@H](CO)C(=O)N[C@H](C(=O)N[C@@H](CC(N)=O)C(=O)N[C@H](C(=O)NCC(=O)N[C@@H](CO)C(=O)N[C@@H](CC(N)=O)C(=O)N[C@H](C(=O)N1CCC[C@H]1C(N)=O)[C@@H](C)O)C(C)C)[C@@H](C)O)N(C)C(=O)CN(C)C(=O)[C@H](Cc1ccccc1)NC(=O)[C@H](CC(N)=O)NC(=O)[C@H](CC(N)=O)NC(=O)[C@H](CO)NC(=O)[C@H](CO)NC(=O)[C@H](Cc1c[nH]cn1)NC(=O)[C@H](CC(C)C)NC(=O)[C@H](Cc1ccccc1)NC(=O)[C@H](CCC(=O)O)NC(=O)[C@H](C)NC(=O)[C@H](CC(C)C)NC(=O)[C@H](CCCNC(=N)N)NC(=O)[C@H](CCC(N)=O)NC(=O)[C@@H](NC(=O)[C@H](C)NC(=O)[C@@H]1CSSC[C@H](NC(=O)[C@H](CCCNC(=N)N)NC(=O)CC[C@H](NC(=O)CCCCCCCCCCCCCCCCCCC(=O)O)C(=O)O)C(=O)N[C@@H](CC(N)=O)C(=O)N[C@@H]([C@@H](C)O)C(=O)N[C@@H](C)C(=O)N[C@@H]([C@@H](C)O)C(=O)N1)[C@@H](C)O [Compound 40, [19CD]-isoGlu-RC()NTATC()ATQRLAEFLHSSNNF-Gly(Me)-Ile(Me)-LSSTNVGSNTP-NH2] ({C20 diacid-γGlu}-RCNTATCATQRLAEFLHSSNNF[Sar][NMeI]LSSTNVGSNTP-NH2; disulfide 2-7) | SS (SS indicates solubility ≥ 1mg/ml) | SS (SS indicates solubility ≥ 1mg/ml) | SS (SS indicates solubility ≥ 1mg/ml) | SS (SS indicates solubility ≥ 1mg/ml) | SS (SS indicates solubility ≥ 1mg/ml) | SS (SS indicates solubility ≥ 1mg/ml) | SS (SS indicates solubility ≥ 1mg/ml) | 0.38 nM | 
CC[C@H](C)[C@@H](C(=O)N[C@@H](CC(C)C)C(=O)N[C@@H](CO)C(=O)N[C@@H](CO)C(=O)N[C@H](C(=O)N[C@@H](CC(N)=O)C(=O)N[C@H](C(=O)NCC(=O)N[C@@H](CO)C(=O)N[C@@H](CC(N)=O)C(=O)N[C@H](C(=O)N1CCC[C@H]1C(N)=O)[C@@H](C)O)C(C)C)[C@@H](C)O)N(C)C(=O)[C@H](C)NC(=O)CN(C)C(=O)[C@H](Cc1ccccc1)NC(=O)[C@H](CC(N)=O)NC(=O)[C@H](CC(N)=O)NC(=O)[C@H](CO)NC(=O)[C@H](CO)NC(=O)[C@H](CC(C)C)NC(=O)[C@H](Cc1ccccc1)NC(=O)[C@H](CCC(=O)O)NC(=O)[C@H](C)NC(=O)[C@H](CC(C)C)NC(=O)[C@H](CCCNC(=N)N)NC(=O)[C@H](CCC(N)=O)NC(=O)[C@@H](NC(=O)[C@H](C)NC(=O)[C@@H]1CSSC[C@H](NC(=O)[C@H](CCCNC(=N)N)NC(=O)CC[C@H](NC(=O)CCCCCCCCCCCCCCCCCCC(=O)O)C(=O)O)C(=O)N[C@@H](CC(N)=O)C(=O)N[C@@H]([C@@H](C)O)C(=O)N[C@@H](C)C(=O)N[C@@H]([C@@H](C)O)C(=O)N1)[C@@H](C)O [Compound 41, [19CD]-isoGlu-RC()NTATC()ATQRLAEFLSSNNF-Gly(Me)-A-Ile(Me)-LSSTNVGSNTP-NH2] ({C20 diacid-γGlu}-RCNTATCATQRLAEFLSSNNF[Sar]A[NMeI]LSSTNVGSNTP-NH2; disulfide 2-7) | SS (SS indicates solubility ≥ 1mg/ml) | SS (SS indicates solubility ≥ 1mg/ml) | SS (SS indicates solubility ≥ 1mg/ml) | SS (SS indicates solubility ≥ 1mg/ml) | SS (SS indicates solubility ≥ 1mg/ml) | SS (SS indicates solubility ≥ 1mg/ml) | SS (SS indicates solubility ≥ 1mg/ml) |  | 0.071 nM
CC[C@H](C)[C@@H](C(=O)N[C@@H](CC(C)C)C(=O)N[C@@H](CO)C(=O)N[C@@H](CO)C(=O)N[C@H](C(=O)N[C@@H](CC(N)=O)C(=O)N[C@H](C(=O)NCC(=O)N[C@@H](CO)C(=O)N[C@@H](CC(N)=O)C(=O)N[C@H](C(=O)N1CCC[C@H]1C(N)=O)[C@@H](C)O)C(C)C)[C@@H](C)O)N(C)C(=O)CN(C)C(=O)[C@H](Cc1ccccc1)NC(=O)[C@H](CC(N)=O)NC(=O)[C@H](CC(N)=O)NC(=O)[C@H](CO)NC(=O)[C@H](CO)NC(=O)[C@H](CC(C)C)NC(=O)[C@H](Cc1ccccc1)NC(=O)[C@H](CCC(=O)O)NC(=O)[C@H](C)NC(=O)[C@H](CC(C)C)NC(=O)[C@H](CCCNC(=N)N)NC(=O)[C@H](CCC(N)=O)NC(=O)[C@@H](NC(=O)[C@H](C)NC(=O)[C@@H]1CSSC[C@H](NC(=O)[C@H](CCCNC(=N)N)NC(=O)CC[C@H](NC(=O)CCCCCCCCCCCCCCCCCCC(=O)O)C(=O)O)C(=O)N[C@@H](CC(N)=O)C(=O)N[C@@H]([C@@H](C)O)C(=O)N[C@@H](C)C(=O)N[C@@H]([C@@H](C)O)C(=O)N1)[C@@H](C)O [Compound 42, [19CD]-isoGlu-RC()NTATC()ATQRLAEFLSSNNF-Gly(Me)-Ile(Me)-LSSTNVGSNTP-NH2] ({C20 diacid-γGlu}-RCNTATCATQRLAEFLSSNNF[Sar][NMeI]LSSTNVGSNTP-NH2; disulfide 2-7) | SS (SS indicates solubility ≥ 1mg/ml) | SS (SS indicates solubility ≥ 1mg/ml) | SS (SS indicates solubility ≥ 1mg/ml) | SS (SS indicates solubility ≥ 1mg/ml) | SS (SS indicates solubility ≥ 1mg/ml) | SS (SS indicates solubility ≥ 1mg/ml) | SS (SS indicates solubility ≥ 1mg/ml) | 0.12 nM | 
CC[C@H](C)[C@@H](C(=O)N[C@@H](CC(C)C)C(=O)N[C@@H](CO)C(=O)N[C@@H](CO)C(=O)N[C@H](C(=O)N[C@@H](CC(N)=O)C(=O)N[C@H](C(=O)NCC(=O)N[C@@H](CO)C(=O)N[C@@H](CC(N)=O)C(=O)N[C@H](C(=O)N1CCC[C@H]1C(N)=O)[C@@H](C)O)C(C)C)[C@@H](C)O)N(C)C(=O)[C@H](C)NC(=O)CN(C)C(=O)[C@H](Cc1ccccc1)NC(=O)[C@H](CC(N)=O)NC(=O)[C@H](CO)NC(=O)[C@H](CO)NC(=O)[C@H](Cc1c[nH]cn1)NC(=O)[C@H](Cc1c[nH]cn1)NC(=O)[C@H](CC(C)C)NC(=O)[C@H](Cc1ccccc1)NC(=O)[C@H](CCC(=O)O)NC(=O)[C@H](C)NC(=O)[C@H](CC(C)C)NC(=O)[C@H](CCCNC(=N)N)NC(=O)[C@H](CCC(N)=O)NC(=O)[C@@H](NC(=O)[C@H](C)NC(=O)[C@@H]1CSSC[C@H](NC(=O)[C@H](CCCNC(=N)N)NC(=O)CC[C@H](NC(=O)CCCCCCCCCCCCCCCCCCC(=O)O)C(=O)O)C(=O)N[C@@H](CC(N)=O)C(=O)N[C@@H]([C@@H](C)O)C(=O)N[C@@H](C)C(=O)N[C@@H]([C@@H](C)O)C(=O)N1)[C@@H](C)O [Compound 44, [19CD]-isoGlu-RC()NTATC()ATQRLAEFLHHSSNF-Gly(Me)-A-Ile(Me)-LSSTNVGSNTP-NH2] ({C20 diacid-γGlu}-RCNTATCATQRLAEFLHHSSNF[Sar]A[NMeI]LSSTNVGSNTP-NH2; disulfide 2-7) | SS (SS indicates solubility ≥ 1mg/ml) | II (II indicates solubility ≤ 1 mg/ml) | II (II indicates solubility ≤ 1 mg/ml) | SS (SS indicates solubility ≥ 1mg/ml) | SS (SS indicates solubility ≥ 1mg/ml) | SS (SS indicates solubility ≥ 1mg/ml) | SS (SS indicates solubility ≥ 1mg/ml) | 0.15 nM | 

Reference: patent publication EP3046573B1, “AMYLIN ANALOGUES” (Zealand Pharma A/S, priority 2013, dated 2015)
